Test results published in patent US7265130B2, “NPY Y5 antagonist” (Shionogi & Co., Ltd., priority 1999, dated 2007).

Columns and labels:
human NPY Y5 receptor [1] = target: T1, human NPY Y5 receptor (Homo sapiens, UniProt Q15761); assay: cAMP production inhibitory activity in CHO cells; format: cell-based; conditions: against 50 nM NPY inhibition of forskolin stimulated cAMP, CHO cells expressing human NPY Y5 receptor
T1 construct: expressed in transfected cells
T1 sequence (Q15761 1-445): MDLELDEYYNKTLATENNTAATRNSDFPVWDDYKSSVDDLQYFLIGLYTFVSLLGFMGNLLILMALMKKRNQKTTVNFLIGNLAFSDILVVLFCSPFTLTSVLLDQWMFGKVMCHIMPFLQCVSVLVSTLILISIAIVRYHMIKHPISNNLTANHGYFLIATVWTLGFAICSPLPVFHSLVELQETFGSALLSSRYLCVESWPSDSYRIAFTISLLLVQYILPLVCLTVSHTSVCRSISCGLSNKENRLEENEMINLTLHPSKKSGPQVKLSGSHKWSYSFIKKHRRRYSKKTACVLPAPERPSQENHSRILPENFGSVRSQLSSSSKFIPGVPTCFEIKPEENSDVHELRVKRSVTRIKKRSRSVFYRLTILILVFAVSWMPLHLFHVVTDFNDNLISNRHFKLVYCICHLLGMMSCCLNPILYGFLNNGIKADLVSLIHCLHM
Description: Experiment 2 cAMP production inhibitory activity in CHO cells
After CHO cells expressing human NPY Y5 receptor were incubated in the presence of 2.5 mM isobutylmethylxanthine (SIGMA) at 37° C. for 20 min., the compound of the present invention was added and incubated for 5 min. Then, 50 nM NPY and 10 μM forskolin (SIGMA) were added to the cells and incubated for 30 min. After the reaction was terminated by adding 1N HCl, the amount of cAMP in the supernatant was measured with EIA kit (Amersham LIFE SCIENCE).

human NPY Y5 receptor [2] = target: T1, human NPY Y5 receptor; assay: Affinity for NPY Y5 receptor ([125I] peptide YY binding, CHO cell membranes); conditions: inhibition of specific [125I] peptide YY binding, membranes of CHO cells expressing NPY Y5 receptor
Description: Experiment 1 Affinity for NPY Y5 Receptor
cDNA sequence encoding a human NPY Y5 receptor (WO096/16542) was cloned in the expression vector pME18S (Takebe et al. Mol. Cell. Biol. 8, 8957). The obtained expression vector was transfected into a host CHO cells by using a Lipofect AMINE reagent (Trademark, Gibco BRL Co., Ltd.) according to an instruction protocol to obtain the cells that stably express NPY Y5 receptor.
The membranes prepared from the above CHO cells expressing NPY Y5 receptor, the compound of the present invention and 30,000 cpm [^125I] peptide YY (60 pM of final concentration: Amersham) were incubated in the assay buffer (20 mM HEPES-Hanks buffer containing 0.1% bovine serum albumin, pH 7.4) at 25° C. for 2 hours, and then the mixture was filtered with a glassfilter GF/C treated with polyethyleneimine. After the glassfilter was washed with 50 mM Tris-HCl buffer (pH 7.4), the radioactivity on the filter was measured with a gamma counter. The non-specific binding was detected in the presence of 200 nM of peptide YY. The 50% inhibitory concentration of the test compound against the specific peptide YY binding (IC50 value) was calculated (Inui, A. et al. Endocrinology 131, 2090-2096 (1992)).

Row | SMILES | IC50 (human NPY Y5 receptor [1]) | IC50 (human NPY Y5 receptor [2])
1 | CC(C)(C)S(=O)(=O)NC1CCC(C(=O)Nc2ccc(Cl)cc2)CC1 (centres unmarked) [Ia-14] | 28 nM | 4.8 nM
2 | CC(C)(C)S(=O)(=O)NC1CCC(C(=O)Nc2ccc(F)c(F)c2F)CC1 (centres unmarked) [Ia-24] | 74 nM | 5.2 nM
3 | C[C@@H]1CN(c2ccc(NC(=O)C3CCC(NS(=O)(=O)C(C)(C)C)CC3)cc2Cl)C[C@H](C)O1 (some centres unmarked) [Ia-25] | 18 nM | 1.1 nM
4 | COc1ccc(NC(=O)C2CCC(NS(=O)(=O)C(C)(C)C)CC2)cc1F (centres unmarked) [Ia-36] | 86 nM | 1.6 nM
5 | C[C@@H]1CN(c2ccc(NC(=O)C3CCC(NS(=O)(=O)C(C)(C)C)CC3)cc2)C[C@@H](C)O1 (some centres unmarked) [Ia-42] | 20 nM | 3.6 nM
6 | C[C@@H]1CN(S(=O)(=O)c2ccc(NC(=O)C3CCC(NS(=O)(=O)C(C)(C)C)CC3)cc2)C[C@H](C)O1 (some centres unmarked) [Ia-44] | 27 nM | 4.8 nM
7 | CCOCCN(CCOCC)c1ccc(NC(=O)C2CCC(NS(=O)(=O)C(C)(C)C)CC2)cc1 (centres unmarked) [Ia-45] | 42 nM | 4.8 nM
8 | CC(C)S(=O)(=O)NC1CCC(C(=O)Nc2ccc(N3C[C@@H](C)O[C@@H](C)C3)c(F)c2)CC1 (some centres unmarked) [Ia-49] | 83 nM | 2.6 nM
9 | CC(C)(C)S(=O)(=O)NC1CCC(C(=O)Nc2ccc(N3CCC(=O)CC3)cc2)CC1 (centres unmarked) [Ia-52] | 22 nM | 1.9 nM
10 | C[C@@H]1CN(S(=O)(=O)c2cccc(NC(=O)C3CCC(NS(=O)(=O)C(C)(C)C)CC3)c2)C[C@H](C)O1 (some centres unmarked) [Ia-55] | 27 nM | 1.1 nM
11 | CC(C)(O)c1ccc(NC(=O)C2CCC(NS(=O)(=O)C(C)(C)C)CC2)cc1 (centres unmarked) [Ia-56] | 96 nM | 2.3 nM
12 | CC(O)(c1ccccc1)c1ccc(NC(=O)C2CCC(NS(=O)(=O)C(C)(C)C)CC2)cc1 (centres unmarked) [Ia-57] | 31 nM | 0.93 nM
13 | CC(C)(C)S(=O)(=O)Nc1ccc(NC(=O)C2CCC(NS(=O)(=O)C(C)(C)C)CC2)cc1 (centres unmarked) [Ia-58] | 110 nM | 2.5 nM
14 | CC(C)(C)S(=O)(=O)NC1CCC(C(=O)Nc2cnc(-c3ccccc3)cn2)CC1 (centres unmarked) [Ia-59] | 16 nM | 0.71 nM
15 | CN1C(=O)c2ccc(NC(=O)C3CCC(NS(=O)(=O)C(C)(C)C)CC3)cc2C1=O (centres unmarked) [Ia-61] | 19 nM | 0.68 nM
16 | CC(C)(C)S(=O)(=O)NC1CCC(C(=O)Nc2ccc(NS(C)(=O)=O)cc2)CC1 (centres unmarked) [Ia-63] | 370 nM | 3.9 nM
17 | CC(C)(C)S(=O)(=O)NC1CCC(C(=O)Nc2ccc(NS(=O)(=O)c3ccccc3)cc2)CC1 (centres unmarked) [Ia-64] | 96 nM | 7.1 nM

Row | SMILES | IC50 (human NPY Y5 receptor [1]) | IC50 (human NPY Y5 receptor [2])
18 | CC(C)(C)S(=O)(=O)NC1CCN(C(=O)Nc2ccc3oc(=O)ccc3c2)CC1 [Ia-68] | 180 nM | 9.5 nM
19 | Cn1nnnc1-c1ccc(NC(=O)[C@H]2CC[C@H](NS(=O)(=O)C(C)(C)C)CC2)cc1 [Ia-69] | 33 nM | 2.7 nM
20 | CC(C)(C)S(=O)(=O)NC1CCN(C(=O)Nc2cnc(-c3ccccc3)cn2)CC1 [Ia-70] | 31 nM | 1.5 nM
21 | CC(C)(C)S(=O)(=O)NCCCCC(=O)Nc1ccc2oc(=O)ccc2c1 [Ia-78] | 150 nM | 2 nM
22 | C[C@@H]1CN(c2ccc(NC(=O)CCCCNS(=O)(=O)C(C)(C)C)c(F)c2)C[C@H](C)O1 [Ia-83] | 53 nM | 1.2 nM
23 | CC(C)(C)S(=O)(=O)NCCCCC(=O)Nc1ccc(N2CCC(O)(c3ccc(Cl)cc3)CC2)cc1 [Ia-85] | 14 nM | 0.22 nM
24 | CC(C)S(=O)(=O)NC1CCC(C(=O)Nc2ccc3c(c2)C(=O)N(C)C3=O)CC1 (centres unmarked) [Ia-87] | 61 nM | 0.49 nM
25 | CC(C)S(=O)(=O)NC1CCC(C(=O)Nc2ccc3c(c2)OCO3)CC1 (centres unmarked) [Ia-88] | 48 nM | 0.62 nM
26 | CN1C(=O)c2ccc(NC(=O)CCCCNS(=O)(=O)C(C)(C)C)cc2C1=O [Ia-91] | 150 nM | 4 nM
27 | CC(C)(C)S(=O)(=O)NC1CCC(C(=O)Nc2ccc3scnc3c2)CC1 (centres unmarked) [Ia-106] | 24 nM | 1.9 nM
28 | CC(C)(C)S(=O)(=O)NC1CCC(C(=O)Nc2cccc3c2CCCC3)CC1 (centres unmarked) [Ia-111] | 28 nM | 5.1 nM
29 | CC(C)(C)S(=O)(=O)Nc1ccc(C(=O)Nc2ccc3c(c2)CCC3)cc1 [Ia-125] | 46 nM | 4.1 nM
30 | CC(C)(C)S(=O)(=O)Nc1ccc(C(=O)Nc2ccc3c(c2)OCCO3)cc1 [Ia-127] | 160 nM | 6.1 nM
31 | CC(C)(C)S(=O)(=O)NC1CCC(C(=O)Nc2cccc(C(F)(F)F)c2)CC1 (centres unmarked) [Ia-129] | 26 nM | 1.3 nM
32 | CC(C)(C)S(=O)(=O)Nc1ccc(C(=O)Nc2ccc3ccsc3c2)cc1 [Ia-131] | 17 nM | 1.3 nM
33 | CC(C)NC(=O)c1cccc(NC(=O)c2ccc(NS(=O)(=O)C(C)(C)C)cc2)c1 [Ia-132] | 76 nM | 2.8 nM

Compounds with a lower IC50 (human NPY Y5 receptor [1]), results first:

Row | IC50 (human NPY Y5 receptor [1]) | IC50 (human NPY Y5 receptor [2]) | SMILES
34 | 2.7 nM | 0.47 nM | CCCc1ccc(NC(=O)C2CCC(NS(=O)(=O)C(C)(C)C)CC2)cc1 (centres unmarked) [Ia-10]
35 | 7.2 nM | 0.64 nM | CC(C)c1ccc(NC(=O)C2CCC(NS(=O)(=O)C(C)(C)C)CC2)cc1 (centres unmarked) [Ia-11]
36 | 3.3 nM | 1.5 nM | CC(C)(C)c1ccc(NC(=O)C2CCC(NS(=O)(=O)C(C)(C)C)CC2)cc1 (centres unmarked) [Ia-13]
37 | 2.2 nM | 1 nM | C[C@@H]1C[C@@H](C)CN(c2ccc(NC(=O)C3CCC(NS(=O)(=O)C(C)(C)C)CC3)cc2)C1 (some centres unmarked) [Ia-38]
38 | 9 nM | 2.5 nM | CC(C)(C)S(=O)(=O)NC1CCC(C(=O)Nc2cccc(Cl)c2)CC1 (centres unmarked) [Ia-41]
39 | 8.3 nM | 0.87 nM | Cc1ccc2nc(-c3ccc(NC(=O)C4CCC(NS(=O)(=O)C(C)(C)C)CC4)cc3)sc2c1 (centres unmarked) [Ia-46]
40 | 3.8 nM | 0.82 nM | CC(C)[C@@H]1CN(c2ccc(NC(=O)C3CCC(NS(=O)(=O)C(C)(C)C)CC3)cc2)CCO1 (some centres unmarked) [Ia-47]
41 | 6.1 nM | 1.2 nM | CCC1(CC)CN(c2ccc(NC(=O)C3CCC(NS(=O)(=O)C(C)(C)C)CC3)cc2)CCO1 (centres unmarked) [Ia-48]
42 | 8.1 nM | 0.22 nM | CC(C)(C)S(=O)(=O)NC1CCC(C(=O)Nc2ccc(C(=O)c3ccccc3)cc2)CC1 (centres unmarked) [Ia-53]
43 | 10 nM | 0.95 nM | CC(=O)c1cc2cc(NC(=O)C3CCC(NS(=O)(=O)C(C)(C)C)CC3)ccc2oc1=O (centres unmarked) [Ia-60]
44 | 11 nM | 1.1 nM | CC(C)(C)S(=O)(=O)NC1CCC(C(=O)Nc2ccc(N3CCC(O)(c4ccc(Cl)cc4)CC3)cc2)CC1 (centres unmarked) [Ia-65]
45 | 3.2 nM | 0.59 nM | CC(C)(C)S(=O)(=O)NC1CCC(C(=O)Nc2nnc(-c3ccccc3)s2)CC1 (centres unmarked) [Ia-66]
46 | 12 nM | 1.3 nM | CC(C)(C)S(=O)(=O)N[C@H]1CC[C@H](C(=O)Nc2ccc(-c3nnnn3-c3ccccc3)cc2)CC1 [Ia-71]
47 | 3 nM | 0.44 nM | CC(C)S(=O)(=O)N[C@H]1CC[C@H](C(=O)Nc2ccc3c(c2)C(=O)N(c2ccccc2)C3=O)CC1 [Ia-80]
48 | 4.5 nM | 2.7 nM | CC(C)(C)S(=O)(=O)NCCCCC(=O)Nc1ccc2c(c1)C(=O)N(c1ccccc1)C2=O [Ia-81]
49 | 13 nM | 0.25 nM | CC(C)S(=O)(=O)NC1CCC(C(=O)Nc2ccc(N3CCC(O)(c4ccc(Cl)cc4)CC3)cc2)CC1 (centres unmarked) [Ia-84]
50 | 11 nM | 0.73 nM | CC(C)S(=O)(=O)NCCCCC(=O)Nc1ccc(N2CCC(O)(c3ccc(Cl)cc3)CC2)cc1 [Ia-86]
51 | 1.3 nM | 0.14 nM | CC(C)(C)S(=O)(=O)NC1CCC(C(=O)Nc2ccc(-c3ccccc3)cc2)CC1 (centres unmarked) [Ia-107]
52 | 3.9 nM | 0.6 nM | CC(C)(C)S(=O)(=O)NC1CCC(C(=O)Nc2cccc3c2Cc2ccccc2-3)CC1 (centres unmarked) [Ia-109]
53 | 1.1 nM | 0.3 nM | CC(C)(C)S(=O)(=O)NC1CCC(C(=O)Nc2ccc(N3CC=CC3)cc2)CC1 (centres unmarked) [Ia-110]
54 | 3 nM | 0.21 nM | CC(C)(C)S(=O)(=O)NC1CCC(C(=O)Nc2ccc3ccsc3c2)CC1 (centres unmarked) [Ia-130]
55 | 8.8 nM | 1.7 nM | CC(C)(C)S(=O)(=O)Nc1ccc(C(=O)Nc2ccc3sccc3c2)cc1 [Ia-133]
